Where two headings read alike, the source gives them in different places.
What was measured:
[1] = test system: Salmonella tester strain TA1538
Method: In this example the compounds of the present invention are tested for their dark mutagenicity using an Ames assay. The procedures used for the Salmonella mutagenicity test as described in detail by Maron and Ames were followed exactly. Maron, D. M. and B. N. Ames, Mutation Research 113: 173 ( 1983). A brief description for each procedure is given here. The tester strains TA97a, TA98, TA100, TA102, TA1537 and TA1538 were obtained from Dr. Ames. TA97a, TA98, TA1537 and TA1538 are frameshift tester strains. TA100 and TA102 are base-substitution tester strains. Upon receipt each strain was cultured under a variety of conditions to confirm the genotypes specific to the strains.
The first tests done with the strains were to determine the range of spontaneous reversion for each of the strains. With each mutagenicity experiment the spontaneous reversion of the tester strains to histidine independence was measured and expressed as the number of spontaneous revertants per plate. This served as the background controls.
For all experiments, the pre-incubation procedure was used. In this procedure one vial of each tester strain was thawed and 20 μL of this culture was added to 6 mL of Oxoid Nutrient Broth #2. This solution was allowed to shake for 10 hours at 37° C. In the pre-incubation procedure, 0.1 mL of this overnight culture was added to each of the required number of sterile test tubes. To half of the tubes 0.5 mL of a 10% S-9 solution containing Aroclor 1254 induced rat liver extract (Molecular Toxicology Inc., Annapolis, Md.), and MgCl2, KCl, glucose-6-phosphate, NADP, and sodium phosphate buffer (Sigma, St. Louis, Mo.) were added. To the other half of the tubes 0.5 mL of 0.2M sodium phospate buffer, pH 7.4, was used in place of the S-9 mixture (the—S9samples). Finally 0.1 mL of the test solution containing either 0, 0.1, 0.5, 1, 5, 10, 50, 100, 250, or 500 μg/mL of the test compound was added. The 0.7 mL mixture was vortexed and then pre-incubated while shaking for 20 minutes at 37° C. After shaking, 2 mL of molten top agar supplemented with histidine and biotin were added to the 0.7 mL mixture and immediately poured onto a minimal glucose agar plate (volume of base agar was 20 mL). The top agar was allowed 30 minutes to solidify and then the plates were inverted and incubated for 44 hours at 37° C. After incubation the number of revertant colonies on each plate were counted. […] (“n” represents the number of replicates performed for each data point.)

[2] = test system: H9 cells chronically infected with HIVIIIB; test: Inactivation of cell-associated HIV in platelet concentrate, HIV microplaque assay; assay type: cell-based; conditions: for log inactivation of HIV, dark control: 150 μM psoralen, no UVA; for logs of HIV inactivated: 150 μM, 3 Joules/cm^2, cell-associated HIV in platelet concentrate
Method: H9 cells chronically infected with HIVIIIB were used. (H9/HTLV-III-B NIH 1983 Cat.#400). Cultures of these cells were maintained in high glucose Dulbecco Modified Eagle Medium supplemented with 2 mM L-glutamine, 200 u/mL penicillin, 200 μg/ml streptomycin, and 9% fetal bovine serum (Intergen Company, Purchase, N.Y.) For maintenance, the culture was split once a week, to a density of 3×10^5 to 4×10^5 cells/ml and about four days after splitting, 3.3% sodium bicarbonate was added as needed. For the inactivation procedure, the cells were used three days after they were split. They were pelleted from their culture medium at 400 g×10 minutes, the supernatant was discarded, and the cells were resuspended in one to five day old human platelet concentrate (PC) (pH 7.5-6.5), to a concentration of 2×10^6 cells/ml. Aliquots of the PC-infected cell suspension were made for psoralen free dark controls, for psoralen free UVA only controls, for psoralen dark controls, and for the psoralen plus UVA experimental sample. Concentrated filter-sterilized stock solutions of each psoralen in water were diluted into the appropriate aliquots to yield a final concentration of 150 μM. […] After an equilibration period of thirty minutes at room temperature, 0.5 ml of each of the dark controls was placed in a cryovial and stored in the dark at −80° C. For UVA illumination, 8 ml of the psoralen free aliquot and 8 ml of each psoralen containing aliquot were introduced into a modified Fl 20 Teflon™ bag (modified to be 92 cm^2 total surface area, The West Co., Phoenixvill, Pa.) via a plastic disposable 10 ml syringe attached to one of the polypropylne ports on the bag. This gave an average path length of 0.17 cm. The bags were then illuminated for a total exposure of 3 Joules/cm^2 in the device described in Example 1, above, attached to a circulating refrigerating water bath set at 4° C., which maintains the temperature in the bag at approximately 22-25° C. During exposure, the device was shaken on a platelet shaker (Helmer Labs, Noblesville, Ind.). After exposure, the contents of the bags were withdrawn by a fresh syringe through the remaining unused port on the bag, and placed in cryovials for storage in the dark at −80° C. until analysis.
The stored samples were thawed at 37° C., then titrated in an HIV microplaque assay, as described in Hanson, C. […] Clot removal from each sample was performed before plating.

[3] = Batch adsorption of 3H-S-59 and photoproducts from illuminated PC, residual radioactivity (Table F); assay type: physicochemical
Method: The removal of residual S-59 and S-59 photoproducts from illuminated PC by batch adsorption was investigated. […] Two separate platelet units were treated for each adsorbent; one unit was agitated for 3 hours before the platelets were separated from the adsorbent and transferred to another bag, and the other platelet unit was left in contact with the adsorbent for 4 days. Samples were removed from the units before treatment, after 3 hours of contact with the adsorbent, and on day 4.

Row | Structure (SMILES) | revertant colonies per plate ([1]; TA1538 + S9, 5 μg/plate) | revertant colonies per plate ([1]; TA1538 + S9, 10 μg/plate) | revertant colonies per plate ([1]; TA1538 − S9, 5 μg/plate) | revertant colonies per plate ([1]; TA1538 − S9, 10 μg/plate) | log inactivation of HIV, dark control [2] [logs] | logs of HIV inactivated [2] [logs] | counts as 3H exchanged water ([3]; 3H-S-59, illuminated PC) | counts associated with plasma macromolecules ([3]; 3H-S-59, illuminated PC) | counts associated with platelet macromolecules ([3]; 3H-S-59, illuminated PC) | non-adsorbed radioactivity ([3]; 3H-S-59, illuminated PC treated with adsorbent for 4 days) | revertant colonies per plate ([1]; TA1538 + S9, 50 μg/plate) | revertant colonies per plate ([1]; TA1538 + S9, 100 μg/plate) | revertant colonies per plate ([1]; TA1538 + S9, 250 μg/plate) | revertant colonies per plate ([1]; TA1538 − S9, 50 μg/plate) | revertant colonies per plate ([1]; TA1538 − S9, 100 μg/plate)
1 | Cc1oc2c(C)c3oc(=O)cc(C)c3cc2c1COCCN [Compound 2, 4′-(4-amino-2-oxa)butyl-4,5′,8-trimethylpsoralen] | 2 | 4 | −8 | −13 | 0 | > 6.7 | about 10% | about 18% | about 15% | 36-37% | – | – | – | – | –
2 | Cc1oc2c(C)c3oc(=O)cc(C)c3cc2c1CNCCCCN [Compound 6, 4′-(6-amino-2-aza)hexyl-4,5′,8-trimethylpsoralen] | – | – | – | – | – | – | – | – | – | – | 24 | −2 | −38 | 2 | −18
3 | Cc1cc(=O)oc2c(C)c3oc(COCCN)c(C)c3cc12 [Compound 18, 5′-(4-amino-2-oxa)butyl-4,4′,8-trimethylpsoralen] | – | – | – | – | 0 | > 7.2 | – | – | – | – | – | – | – | – | –

Source: patent publication US6544727B1, “Methods and devices for the removal of psoralens from blood products” (Cerus Corporation, priority 1995, dated 2003)
